# Target: T1, human NK1 receptor (Homo sapiens, UniProt P25103)
# T1 construct: expressed in transfected cells; host or cells: CHO cells infected with the Semliki virus expression system; membrane suspension
# Experiment: NK1 receptor binding assay, displacement of [3H]substance P
# Settings: affinity to the NK-1 receptor; human NK1 receptors in CHO cells (Semliki virus expression system); [3H]substance P 0.6 nM
# Procedure: The affinity of tests compounds for the NK1 receptor was evaluated at human NK 1 receptors in CHO cells infected with the human NK1 receptor (using the Semliki virus expression system) and radiolabelled with [^3H]substance P (final concentration 0.6 nM.) Binding assays were performed in HEPES buffer (50 mM, pH 7.4) containing BSA (0.04%) leupeptin (8 μg/ml), MnCl2 (3 mM) and phosphoramidon (2 μM). Binding assays consisted of 250 μl of membrane suspension (1.25×10^5 cells/assay tube), […] of bugger of displacing agent and 125 μl of [^3H]substance P. Displacement curves were determined with at least seven concentrations of the compound. The assay tubes were incubated for 60 min at room temperature after which time the tube contents were rapidly filtered under vacuum through GF/C filters presoaked for 60 min with PEI (0.3%) with 2×2 ml washes of HEPES buffer (50 mM, pH 7.4). The radioactivity retained on the filters was measured by scintillation counting. All assays were performed in triplicate in at least 2 separate experiments.
# T1 sequence (P25103 whole entry): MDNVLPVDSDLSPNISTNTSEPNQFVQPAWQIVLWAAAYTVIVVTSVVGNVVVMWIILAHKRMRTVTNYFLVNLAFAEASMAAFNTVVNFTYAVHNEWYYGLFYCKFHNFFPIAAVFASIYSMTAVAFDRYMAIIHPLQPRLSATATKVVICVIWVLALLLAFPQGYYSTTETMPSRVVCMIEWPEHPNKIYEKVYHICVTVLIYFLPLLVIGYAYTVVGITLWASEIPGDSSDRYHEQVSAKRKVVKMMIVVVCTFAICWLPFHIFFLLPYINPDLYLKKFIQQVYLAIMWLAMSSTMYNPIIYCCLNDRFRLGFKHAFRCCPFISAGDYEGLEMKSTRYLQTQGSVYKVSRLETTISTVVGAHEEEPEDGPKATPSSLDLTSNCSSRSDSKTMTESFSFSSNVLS
row,Structure (SMILES),Ki
1,"Cc1ccccc1-c1cc([S+]([O-])c2ccccn2)ncc1C(=O)N(C)Cc1cc(C(F)(F)F)cc(C(F)(F)F)c1 (racemic) [Example 99, (RS)-N-(3,5-Bis-trifluoromethyl-benzyl)-N-methyl-6-(pyridine-2-sulfinyl)-4-o-tolyl-nicotinamide]",2.63 nM
2,"Cc1ccccc1-c1cc(N(O)CCO)ncc1N(C)C(=O)C(C)(C)c1cc(C(F)(F)F)cc(C(F)(F)F)c1 [Example 8, 2-(3,5-Bis-trifluoromethyl-phenyl)-N-{6-[hydroxy-(2-hydroxy-ethyl)-amino]-4-o-tolyl-pyridin-3-yl}-N-methyl-isobutyramide]",0.513 nM
3,"Cc1ccccc1-c1cc(NC(=O)CO)ncc1N(C)C(=O)C(C)(C)c1cc(C(F)(F)F)cc(C(F)(F)F)c1 [Example 13, 2-(3,5-Bis-trifluoromethyl-phenyl)-N-[6-(2-hydroxy-acetylamino)-4-o-tolyl-pyridin-3-yl]-N-methyl-isobutyramide]",1.62 nM
4,"Cc1ccccc1-c1cc(N(C(=O)C2CC2)C(=O)C2CC2)ncc1N(C)C(=O)C(C)(C)c1cc(C(F)(F)F)cc(C(F)(F)F)c1 [Example 16, Cyclopropanecarboxylic acid (5-{[2-(3,5-bis-trifluoromethyl-phenyl)-2-methyl-propionyl]-methyl-amino}-4-o-tolyl-pyridin-2-yl)-cyclopropanecarbonyl-amide]",3.16 nM
5,"Cc1ccccc1-c1cc(Cl)ncc1N(C)C(=O)C(C)(C)c1cc(C(F)(F)F)cc(C(F)(F)F)c1 [Example 26, 2-(3,5-Bis-trifluoromethyl-phenyl)-N-(6-chloro-4-o-tolyl-pyridin-3-yl)-N-methyl-isobutyramide]",2.24 nM
6,"CC(=O)c1ccc(-c2cc(-c3ccccc3C)c(C(=O)N(C)Cc3cc(C(F)(F)F)cc(C(F)(F)F)c3)cn2)s1 [Example 38, 6-(5-Acetyl-thiophen-2-yl)-N-(3,5-bis-trifluoromethyl-benzyl)-N-methyl-4-o-tolyl-nicotinamide]",2.14 nM
7,"Cc1ccccc1-c1cc(C2=CCNCC2)ncc1C(=O)N(C)Cc1cc(C(F)(F)F)cc(C(F)(F)F)c1 [Example 42, 4-o-Tolyl-1′,2′,3′,6′-tetrahydro-[2,4′]bipyridinyl-5-carboxylic acid (3,5-bis-trifluoromethyl-benzyl)-methyl-amide]",0.832 nM
8,"Cc1noc(-c2cc(-c3ccccc3C)c(C(=O)N(C)Cc3cc(C(F)(F)F)cc(C(F)(F)F)c3)cn2)n1 [Example 62, N-(3,5-Bis-trifluoromethyl-benzyl)-N-methyl-6-(3-methyl-[1,2,4]oxadiazol-5-yl)-4-o-tolyl-nicotinamide]",3.02 nM
9,"C#Cc1cc(-c2ccccc2C)c(N(C)C(=O)C(C)(C)c2cc(C(F)(F)F)cc(C(F)(F)F)c2)cn1 [Example 66, 2-(3,5-Bis-trifluoromethyl-phenyl)-N-(6-ethynyl-4-o-tolyl-pyridin-3-yl)-N-methyl-isobutyramide]",2.69 nM
10,"Cc1ccccc1-c1cc(OCCCO)ncc1C(=O)N(C)Cc1cc(C(F)(F)F)cc(C(F)(F)F)c1 [Example 113, N-(3,5-Bis-trifluoromethyl-benzyl)-6-(3-hydroxy-propoxy)-N-methyl-4-o-tolyl-nicotinamide]",1.66 nM

# Reference: patent US6770637B2, “Substituted 4-phenyl-pyridine compounds with activity as antagonists of neurokinin 1 receptors” (Hoffmann-La Roche Inc., priority 2000, dated 2004)
